Here are results for 25 compounds from PubChem BioAssay AID330 (DTP/NCI, 2004).

This test has as its system P388 leukemia ip, CD2F1 mice, survival T/C. The test can be described thus: NCI In Vivo Anticancer Drug Screen. Data for tumor model P388 Leukemia (intraperitoneal) in CD2F1 (CDF1) mice. To be noted: endpoint: median survival time, higher = longer survival. The method, boiled down:
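Mice carrying the transplanted tumor received test compound or vehicle. Survival was recorded in each group, and the value is the treated-group measurement divided by that of the vehicle-treated control group.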

Setting [1] is: dose: 6.25 mg/kg/injection, schedule: Q01DX005 (ip), vehicle: saline.
Where [2] appears, read: dose: 12.5 mg/kg/injection, schedule: Q01DX005 (ip), vehicle: saline.
The mark [3] stands for this setting: dose: 50.0 mg/kg/injection, schedule: Q01DX009 (ip), vehicle: saline with Tween-80.
[4] abbreviates: dose: 100.0 mg/kg/injection, schedule: Q01DX009 (ip), vehicle: saline with Tween-80.
The mark [5] stands for this setting: dose: 200.0 mg/kg/injection, schedule: Q01DX009 (ip), vehicle: saline with Tween-80.
The mark [6] stands for this setting: dose: 25.0 mg/kg/injection, schedule: Q04DX002 (ip), vehicle: saline with Tween-80.
Where [7] appears, read: dose: 50.0 mg/kg/injection, schedule: Q04DX002 (ip), vehicle: saline with Tween-80.
Setting [8] is: dose: 50.0 mg/kg/injection, schedule: Q01DX005 (ip), vehicle: Klucel (hydroxypropylcellulose) (HPC).
Setting [9] is: dose: 100.0 mg/kg/injection, schedule: Q01DX005 (ip), vehicle: Klucel (hydroxypropylcellulose) (HPC).
The mark [10] stands for this setting: dose: 200.0 mg/kg/injection, schedule: Q01DX005 (ip), vehicle: Klucel (hydroxypropylcellulose) (HPC).
Where [11] appears, read: dose: 50.0 mg/kg/injection, schedule: Q01DX005 (ip), vehicle: saline with Tween-80.
Setting [12] is: dose: 100.0 mg/kg/injection, schedule: Q01DX005 (ip), vehicle: saline with Tween-80.
The mark [13] stands for this setting: dose: 200.0 mg/kg/injection, schedule: Q01DX005 (ip), vehicle: saline with Tween-80.
The mark [14] stands for this setting: dose: 60.0 mg/kg/injection, schedule: Q01DX005 (ip), vehicle: saline with Tween-80.
[15] abbreviates: dose: 120.0 mg/kg/injection, schedule: Q01DX005 (ip), vehicle: saline with Tween-80.

Structures are written as SMILES. Several values for one entry are separate records, joined by “and”; a condition that tells them apart may be missing. Equal values may be shown once. Inconclusive results and toxic doses are left out. Peptide text beside a SMILES is read from it. * marks the point of attachment. Cbz = O=C(OCc1ccccc1)*

Take `O=S(CF)c1ccccc1` (stereo unspecified): the T/C is 91 % of control (dose: 75.0 mg/kg/injection, schedule: Q04DX003 (ip), vehicle: saline); 101 % of control (dose: 150.0 mg/kg/injection, schedule: Q04DX003 (ip), vehicle: saline); 107 % of control (dose: 300.0 mg/kg/injection, schedule: Q04DX003 (ip), vehicle: saline).

Turning to `C#CCOCCCC(=C)C`, the T/C is, setting by setting: (dose: 3.12 mg/kg/injection, schedule: Q01DX005 (ip), vehicle: saline) 103 % of control; under setting [1], 99 % of control; under setting [2], 100 % of control; (dose: 25.0 mg/kg/injection, schedule: Q01DX005 (ip), vehicle: saline) 100 % of control.

`COc1ccc(N=C(N=C(NC(=O)c2ccccc2)c2ccccc2)c2ccccc2)cc1`: the T/C is, setting by setting: under setting [3], 104 % of control and 95 % of control; under setting [4], 103 % of control and 92 % of control; under setting [5], 100 % of control.

For the compound `NC(=O)C1CCCN1C(=O)C1CCCN(CCCCCCN2CCCC(C(=O)N3CCCC3C(N)=O)C2)C1` (stereo unspecified), the T/C by setting is: (dose: 60.0 mg/kg/injection, schedule: Q01DX005 (ip), vehicle: saline) 105 % of control; (dose: 120.0 mg/kg/injection, schedule: Q01DX005 (ip), vehicle: saline) 98 % of control.

Consider `C[C@H]1O[C@H](C)[C@H](O)C2=C1C(=O)c1ccccc1C2=O`, for which the T/C is, setting by setting: (dose: 12.5 mg/kg/injection, schedule: Q04DX002 (ip), vehicle: saline with Tween-80) 100 % of control and 95 % of control; under setting [6], 99 % of control and 100 % of control and 96 % of control; under setting [7], 99 % of control and 110 % of control and 94 % of control.

Turning to `Cc1nc(-c2ccccc2)nc2c1nc(Cc1ccc(Cl)cc1)n2Nc1ccccc1`, the T/C is, setting by setting: under setting [8], 95 % of control; under setting [9], 91 % of control; under setting [10], 88 % of control.

Turning to `CC(C)(C)OC(=O)NC(Cc1ccc(OCc2ccccc2)cc1)C(=O)O` (stereo unspecified), the T/C under setting [11] is 104 % of control, the T/C under setting [12] was 106 % of control and the T/C under setting [13] is 97 % of control.

Turning to `CC(C)(C)CC(C)(C)c1ccc(OCc2ccc(F)cc2)cc1`, the T/C is 99 % of control under setting [3], 95 % of control under setting [4] and 98 % of control under setting [5].

In the case of `CC(O)C(NC(=O)C(Cc1ccc(O)cc1)NC(=O)OCc1ccccc1)C(=O)O` (stereo not drawn) (Cbz-Tyr-Thr-OH; configuration not given here), the T/C was 105 % of control (dose: 50.0 mg/kg/injection, schedule: Q01DX005 (ip), vehicle: suspension in saline); 96 % of control (dose: 100.0 mg/kg/injection, schedule: Q01DX005 (ip), vehicle: suspension in saline); 111 % of control (dose: 200.0 mg/kg/injection, schedule: Q01DX005 (ip), vehicle: suspension in saline).

Regarding `O=c1nc2n(CC(O)CN3CCCCC3)c3cc(Cl)ccc3nc-2c(=O)[nH]1` (stereo unspecified), the T/C by setting is: under setting [1], 103 % of control; under setting [2], 106 % of control.

Consider `CN(C)CCOC(=O)Nc1ccccc1C(F)(F)F`, for which the T/C under setting [14] is 99 % of control and the T/C under setting [15] was 95 % of control.

Regarding `CCC(c1ccc(O)cc1)C(CC)c1ccc(OCC(N)=O)cc1` (stereo unspecified), the T/C is 92 % of control under setting [14]; 94 % of control under setting [15]; 94 % of control (dose: 240.0 mg/kg/injection, schedule: Q01DX005 (ip), vehicle: saline with Tween-80).

For `CS(=O)(=O)OCCCCCCCCCCCCCC1C=CCC1` (stereo unspecified), the T/C is 99 % of control (dose: 100.0 mg/kg/injection, schedule: Q04DX003 (ip), vehicle: saline); 103 % of control (dose: 200.0 mg/kg/injection, schedule: Q04DX003 (ip), vehicle: saline); 99 % of control (dose: 400.0 mg/kg/injection, schedule: Q04DX003 (ip), vehicle: saline).

Turning to `N#CN(Cc1ccccc1)Cc1ccccc1.[Br][Sn]([c]1ccccc1)([c]1ccccc1)[c]1ccccc1`, the T/C is, setting by setting: (dose: 3.12 mg/kg/injection, schedule: Q01DX005 (ip), vehicle: saline with Tween-80) 100 % of control; (dose: 6.25 mg/kg/injection, schedule: Q01DX005 (ip), vehicle: saline with Tween-80) 100 % of control; (dose: 12.5 mg/kg/injection, schedule: Q01DX005 (ip), vehicle: saline with Tween-80) 91 % of control; under setting [11], 114 % of control.

Turning to `N#CC1CCCC(CCc2ccccc2)(c2ccccc2)C1=N` (stereo unspecified), the T/C is 100 % of control (dose: 50.0 mg/kg/injection, schedule: Q01DX001 (ip), vehicle: Klucel (hydroxypropylcellulose) (HPC)); 99 % of control and 101 % of control (dose: 100.0 mg/kg/injection, schedule: Q01DX001 (ip), vehicle: Klucel (hydroxypropylcellulose) (HPC)); 91 % of control (dose: 200.0 mg/kg/injection, schedule: Q01DX001 (ip), vehicle: Klucel (hydroxypropylcellulose) (HPC)); 102 % of control and 92 % of control (dose: 400.0 mg/kg/injection, schedule: Q01DX001 (ip), vehicle: Klucel (hydroxypropylcellulose) (HPC)).

Regarding `O=[N+]([O-])c1ccc(-c2nc(/C=N/N3CCCCC3)cs2)s1`, the T/C by setting is: (dose: 25.0 mg/kg/injection, schedule: Q01DX009 (ip), vehicle: saline with Tween-80) 104 % of control; under setting [3], 106 % of control; under setting [4], 109 % of control.

Consider `N#CC(=O)c1ccccc1`, for which the T/C is, setting by setting: (dose: 3.12 mg/kg/injection, schedule: Q04DX003 (ip), vehicle: saline with Tween-80) 101 % of control; (dose: 6.25 mg/kg/injection, schedule: Q04DX003 (ip), vehicle: saline with Tween-80) 100 % of control; (dose: 12.5 mg/kg/injection, schedule: Q04DX003 (ip), vehicle: saline with Tween-80) 103 % of control and 105 % of control; (dose: 400.0 mg/kg/injection, schedule: Q04DX003 (ip), vehicle: saline with Tween-80) 101 % of control.

With `CC1(O)/C=C\C=C(\CO)C2CC(C)(C)C2(O)CC1` (stereo unspecified), the T/C (dose: 6625.0 micrograms/kg/injection, schedule: Q01DX005 (ip), vehicle: Klucel (hydroxypropylcellulose) (HPC)) is 100 % of control; the T/C (dose: 13250.0 micrograms/kg/injection, schedule: Q01DX005 (ip), vehicle: Klucel (hydroxypropylcellulose) (HPC)) is 98 % of control; the T/C (dose: 26500.0 micrograms/kg/injection, schedule: Q01DX005 (ip), vehicle: Klucel (hydroxypropylcellulose) (HPC)) was 94 % of control; the T/C (dose: 53000.0 micrograms/kg/injection, schedule: Q01DX005 (ip), vehicle: Klucel (hydroxypropylcellulose) (HPC)) was 87 % of control.

Regarding `CS(=O)(=O)N(C=O)c1ccccc1`, the T/C is, setting by setting: (dose: 50.0 mg/kg/injection, schedule: Q01DX009 (ip), vehicle: saline) 110 % of control; (dose: 100.0 mg/kg/injection, schedule: Q01DX009 (ip), vehicle: saline) 100 % of control; (dose: 200.0 mg/kg/injection, schedule: Q01DX009 (ip), vehicle: saline) 96 % of control.

As for `CC1CN=C(CCc2ccc(NC(=O)c3ccc(C(=O)Nc4ccc(CCC5=NCC(C)N5)cc4)cc3)cc2)N1` (stereo unspecified), the T/C by setting is: (dose: 12.5 mg/kg/injection, schedule: Q01DX005 (ip), vehicle: Klucel (hydroxypropylcellulose) (HPC)) 108 % of control; (dose: 25.0 mg/kg/injection, schedule: Q01DX005 (ip), vehicle: Klucel (hydroxypropylcellulose) (HPC)) 108 % of control; under setting [9], 160 % of control.

As to `CN=C1N=C(c2ccc(C(C)(C)C)cc2)C(O)(c2ccc(C(C)(C)C)cc2)N1` (stereo unspecified), the T/C was 104 % of control under setting [6] and 117 % of control under setting [7].

On to `C[C@@H]1CCC[C@H]1CC(N)C(=O)O` (stereo partly specified), for which the T/C is 99 % of control under setting [11], 95 % of control under setting [12] and 91 % of control under setting [13].

For `CC1(C)OC2COC3(C(=O)O)OC(C)(C)OC3C2O1` (stereo unspecified), the T/C was 100 % of control under setting [8], 100 % of control under setting [9] and 98 % of control under setting [10].

In the case of `CN1CCc2sccc2C(c2ccccc2)O1` (stereo unspecified), the T/C by setting is: under setting [8], 112 % of control; under setting [9], 104 % of control; under setting [10], 113 % of control.

Turning to `CCS(=O)(=O)/C=C\S(=O)(=O)CC`, the T/C was 100 % of control (dose: 1.56 mg/kg/injection, schedule: Q04DX003 (ip), vehicle: Klucel (hydroxypropylcellulose) (HPC)); 98 % of control (dose: 3.12 mg/kg/injection, schedule: Q04DX003 (ip), vehicle: Klucel (hydroxypropylcellulose) (HPC)); 100 % of control (dose: 6.25 mg/kg/injection, schedule: Q04DX003 (ip), vehicle: Klucel (hydroxypropylcellulose) (HPC)).
